Measured values reported in patent US10125365B2, “Micro-RNAs and compositions comprising same for the treatment and diagnosis of serotonin-, adrenalin-, noradrenalin-, glutamate-, and corticotropin-releasing hormone- associated medical conditions” (Yeda Research and Development Co. Ltd., priority 2014, dated 2018).

What was measured:
miR-135a = experiment: Real time PCR of miR-135a in raphe nucleus after antidepressant treatment; format: in vivo, mouse; details: mice, 20 mg/kg i.p., acute or chronic administration
Procedure: Mice received i.p. injection of tricyclic-Imipramine, or SSRI-Fluoxetine, or NRI-Reboxetine (20 mg/kg in saline) or saline.
Blunted 14G syringes were used to extract the RN region from 3 mm slices removed from the matrix.
(§1) For behavioral testing, mice were injected with 20 mg/kg SSRI i.p. 30 minutes prior to the test.
Samples were then analyzed using SYBR® Green

miR-19a/b = miR-19a/b levels in prefrontal cortex after Reboxetine; format: in vivo, mouse; details: mice
Description: These animals will be also tested for anxiety like behavior, locomotor activity and memory performance. Furthermore, the levels of expression of miR-19a and miR-19b are examined in different regions of interest (E.G the hippocampus, amygdala and forebrain) following an acute and chronic systemic treatment with the Noradrenaline reuptake inhibitor Reboxetine in WT mice.
The physiological link between miRNA-19 and Adrb1 was studied by assessing the level of miR-19a/b in the prefrontal cortex (PFC) of mice that were injected with Reboxetine, a noradrenalin reuptake inhibitor (NRI), either acutely or chronically (FIGS. 12A-D).

mice [1] = experiment: Social avoidance test after chronic social defeat; format: in vivo, mouse; details: mice exposed to social defeat, chronic treatment vs saline
Procedure: Mice were subjected to a social defeat protocol as previously described (Elliott et al., 2010). Briefly, mice were placed in a home cage of an aggressive ICR mouse where they physically interacted for five minutes. […] Perforated clear Plexiglas dividers were then placed between the animals and the mice remained in the same cage for 24 hours to allow sensory contact. The procedure was then repeated with an unfamiliar ICR mouse for 10 consecutive days.
as §1
Social avoidance test: In the social avoidance test, mice were placed in a 15 cm×35 cm arena with a small 15 cm×8 cm neighboring chamber separated by a divider with small open slits allowing full sensory contact. The tested mice were allowed to habituate to the arena for three minutes, and then an unfamiliar ICR mouse was placed in the neighboring chamber for another three minutes. Time spent near the divider was quantified using video tracking by Ethovision software (Noldus, Wageningen, Netherlands). Interaction ratio was calculated by dividing the time the mice spent in a defined area near the unfamiliar ICR to the time the mice spent in the same area during habitation, and multiplied by 100.

miR-135b = experiment: Real time PCR of miR-135b in raphe nucleus after antidepressant treatment; details: mice, 20 mg/kg i.p., acute or chronic administration
mice [2] = experiment: Tail suspension test; format: in vivo, mouse; details: miR135b KD and control KD mice
Procedure: The tail suspension test was performed in the TSE Tail Suspension Monitor (TSE Systems, Bad Homburg, Germany). Each mouse was taped by the tip of its tail, and suspended from the force sensor for 10 minutes. Time spent immobile and time spent struggling were calculated and recorded by the software based on pre-set thresholds.

Slc6a4 3′UTR = experiment: Luciferase reporter assay, Slc6a4 3′UTR; format: cell-based, mouse; details: HEK293T cells, miR over-expressing vector vs empty vector
Procedure: (§2) 3′UTR sequences of Slc6a4, Htr1a, MaoA and Tph2 were PCR amplified from mouse genomic DNA, or total brain cDNA. 3′UTR PCR fragments were ligated into pGEM-T easy vector (Promega) according to the manufacturer's guidelines, and further subcloned into a single NotI site at the 3′ end of luciferase in the Psicheck2 reporter plasmid (Promega). […] Cloning orientation was verified by diagnostic cuts and by sequencing.
(§3) HEK293T cells were grown on poly-L-lysine in 48-well format to a 70-85% confluence and transfected using Polyethyleneimine with the following plasmids: 5 ng of Psicheck2-3′UTR plasmid and 215 ng of over-expressing vector for a specific miRNA, or empty-miR-vec over-expression plasmids. 24 hours following transfection cells were lysed and luciferase reporters activity were assayed as previously described [Chen A. et al. Mol Endocrinol (2005) 19: 441-58]. Renilla luciferase values were normalized to control firefly luciferase levels (transcribed from the same vector but not affected by 3′UTR tested) and averaged across six well repetitions per condition.
3′ UTRs sequences of Slc6a4 and Htr1a were PCR amplified from mouse genomic DNA. 3′UTRs PCR fragments were ligated into pGEM-T easy vector (Promega) according to the manufacturer's guidelines, and further sub-cloned into a single NotI site at the 3′ end of luciferase in the psiCHECK-2 reporter plasmid (Promega). […]

Htr1a 3′UTR = experiment: Luciferase reporter assay, Htr1a 3′UTR; format: cell-based, mouse; details: for repression of Htr1a 3′UTR (luciferase): HEK293T cells, miR over-expressing vector vs empty vector; for seed match through which Htr1a 3′UTR is repressed: Htr1a miR-135 seed matches mutated individually or both
Procedure: as §2, §3
3′UTR sequence of Htr1a was PCR amplified from mouse genomic DNA. 3′UTR PCR fragments were ligated into pGEM-T easy vector (Promega) according to the manufacturer's guidelines, and further subcloned into a single NotI site at the 3′ end of luciferase in the Psicheck2 reporter plasmid (Promega). Cloning orientation was verified by diagnostic cuts and by sequencing.
as §3, with “plasmids:” for “plasmids: 5 ng of”, “Psicheck2-3′UTR plasmid, pre-mmu-miR-182 over-expression in pEGFP” for “Psicheck2-3′UTR”, “plasmid” for “plasmid and 215 ng of over-expressing vector for a specific miRNA,”, “pEGFP plasmid alone (clontech).” for “empty-miR-vec over-expression plasmids.”
3′ UTRs sequences of Slc6a4 and Htr1a were PCR amplified from mouse genomic DNA. 3′UTRs PCR fragments were ligated into pGEM-T easy vector (Promega) according to the manufacturer's guidelines, and further sub-cloned into a single NotI site at the 3′ end of luciferase in the psiCHECK-2 reporter plasmid (Promega). […] Cloning orientation was verified by diagnostic cuts and sequencing.
Twenty-four hours following transfection cells were lysed and luciferase reporter activities were assayed as previously described (Kuperman et al., 2011). […]

## CCOc1ccccc1OC(c1ccccc1)C1CNCCO1 (stereo not drawn) [Reboxetine]
miR-135a
  miR-135a expression levels in the RN: no differences
miR-19a/b; acute
  miR-19 a/b levels in the PFC, acute administration: down regulated
miR-19a/b; chronic
  miR-19 a/b levels in the PFC, chronic administration: upregulated

## CN(C)CCCN1c2ccccc2CCc2ccccc21 [Imipramine]
miR-135a; 20 mg/kg
  miR-135a expression levels in the RN: increased
miR-135a; listed as imipramine, 20 mg/kg
  miR-135a expression levels in the RN: significantly increased
Mice [1]
  social avoidance (interaction ratio): not those who received imipramine developed social avoidance
miR-135b
  miR-135b expression levels in the RN: increased

## CNCCC(Oc1ccc(C(F)(F)F)cc1)c1ccccc1 (stereo not drawn) [Fluoxetine]
miR-135a
  miR-135a expression levels in the RN: robust increase
Mice [2]
  immobility time, tail suspension test, treated vs basal: decrease in immobility time

## miR-135b: mature miR-135b, Accession No. MIMAT0000758 (SEQ ID NO: 62); tested via overexpressing vector (SEQ ID NO: 211) (UAUGGCUUUUCAUUCCUAUGUGA; listed as Homo sapiens)
Slc6a4 3′UTR
  repression of Slc6a4 3′UTR (luciferase): approximately 50%
Htr1a 3′UTR
  repression of Htr1a 3′UTR (luciferase): approximately 50%
  seed match through which Htr1a 3′UTR is repressed: via both predicted sites

## miR-135a: mature miR-135a, Accession No. MIMAT0000428 (SEQ ID NO: 61); tested via overexpressing vector (SEQ ID NO: 210) (UAUGGCUUUUUAUUCCUAUGUGA; listed as Homo sapiens)
Slc6a4 3′UTR
  repression of Slc6a4 3′UTR (luciferase): approximately 30%
Htr1a 3′UTR
  repression of Htr1a 3′UTR (luciferase): approximately 30%
  seed match through which Htr1a 3′UTR is repressed: via the distal and not the proximal seed match
